According to publication PMC7504215, “Copper(II) Complexes with Mixed Heterocycle Ligands as Promising Antibacterial and Antitumor Species” (Molecules, 2020):

Legend:
P. aeruginosa 27853 = experiment: MIC assay, liquid medium microdilution (planktonic growth); assay type: cell-based, Pseudomonas aeruginosa; settings: P. aeruginosa 27853, 24 h at 37 °C
Procedure: (§1) The antibacterial assays were performed on Gram-negative (Escherichia coli ATCC 25922, E. coli 5, Pseudomonas aeruginosa ATCC 27853, P. aeruginosa ATCC 9027) and Gram-positive (Staphylococcus aureus ATCC 25923, S. aureus ATCC 6538, MRSA (Meticillin-resistant S. aureus) 388, ATCC, American Type Culture Collection) bacterial strains. Microbial suspensions (1.5 × 10^8 CFU/mL; colony forming units (CFU)) corresponding to 0.5 McFarland density obtained from 15 to 18-h bacterial cultures developed on solid media were used. The antimicrobial activity was tested on Mueller–Hinton agar medium.
(§2) The quantitative assay of the antimicrobial activity was performed by the liquid medium microdilution method, in 96-well multi-well plates, to establish the minimal inhibitory concentration (MIC). For this purpose, serial two-fold dilutions of the compounds ranging between 1.000 and 1.95 μg/mL were performed in a 200 μL volume of broth and each well was seeded with 50 μL microbial inoculums. Sterility control (wells containing only culture medium) and culture controls (wells containing culture medium seeded with the microbial inoculum) were used. The influence of the DMSO solvent was also quantified in a series of wells containing DMSO, diluted accordingly with the dilution scheme used for the complexes. The plates were incubated for 24 h at 37 °C, and MIC values were considered as the lowest concentration of the tested compound that inhibited the visible growth of the microbial overnight cultures.

P. aeruginosa 9027 = experiment: as above; assay type: cell-based, Pseudomonas aeruginosa; settings: P. aeruginosa 9027 (multi-drug-resistant), 24 h at 37 °C
Procedure: as §1, §2

MRSA = experiment: as above; assay type: cell-based, Staphylococcus aureus; settings: 24 h at 37 °C
Procedure: as §1, §2

S. aureus 25923 = experiment: as above; assay type: cell-based, Staphylococcus aureus; settings: S. aureus 25923, 24 h at 37 °C
Procedure: as §1, §2

S. aureus 6538 = experiment: as above; assay type: cell-based, Staphylococcus aureus; settings: S. aureus 6538, 24 h at 37 °C
Procedure: as §1, §2

[1] = test system: human red blood cells (hRBCs); experiment: Hemolytic activity (adapted ASTM F 756-00); assay type: cell-based; settings: 25 µg/mL, 4 h at 37 °C, threshold 5% (ASTM F 756-00)
Procedure: The hemolytic activity of the compounds was determined using an adapted protocol of ASTM F 756–00 standard based on hemoglobin release from human red blood cells (hRBCs) resulting after cell lyses. Briefly, the blood samples were collected from healthy volunteers, diluted to a concentration of hemoglobin ~10 mg/mL with phosphate buffer saline (PBS) and then incubated with various concentrations of compounds for 4 h at 37 °C. After 4 h, the cells were centrifuged, the supernatant was collected, transferred into 96-well tissue culture plates and mixed with Drabkin reagent, which converts hemoglobin to cyanmethemoglobin (absorption peak at 540 nm). After 15 min, the absorbance of the samples was read at 570 nm using a plate reader. The obtained data was background corrected and used to calculate the hemolytic index as percentage of the hemoglobin released after the treatment with the tested compounds, relative to control samples. The hRBCs in PBS and distilled water were used as negative and positive controls.

[2] = test system: Saccharomyces cerevisiae (wild-type, WT) laboratory strain BY4741; experiment: Yeast cell proliferation (toxicity); assay type: cell-based; settings: for Effect on cell proliferation: 0.1–0.2 mM final concentration in liquid YPD, compared to cells grown without compounds; for IC50: S. cerevisiae BY4741 (WT), liquid YPD
Procedure: The Saccharomyces cerevisiae laboratory strain BY4741 (MATa; his3Δ1; leu2Δ0; met15Δ0; ura3Δ0), considered wild type (WT), and the isogenic strains sod1Δ and sod2Δ lacking the genes SOD1 (encoding Cu/Zn-superoxide dismutase) and SOD2 (encoding Mn-superoxide dismutase) were purchased from EUROSCARF (Frankfurt, Germany). Cells were maintained and manipulated and grown in YPD medium (1% w/v yeast extract, 2% w/v peptone, 2% w/v glucose; 2% w/v agar was added for solid media). Complexes were added to autoclaved media from DMSO sterile stocks (10 mM). To determine the effect of compounds on yeast growth, a fresh overnight pre-culture was 10^3-fold diluted in YPD and incubated (200 rpm, 30 °C) until the culture reached a density of 5 × 10^5 cells/mL. At this point, the compounds were added to the desired concentrations, and cell proliferation was monitored at 660 nm in a 96-well multi-scanner autoreader plate reader equipped with a thermostat and shaker (Varioskan Thermo Fischer Scientific, Vantaa, Finland). The uptake of compounds by yeast cells was determined indirectly by measuring the increase of the total cellular copper content normalized to the total cellular protein determined by Bradford assay. All determinations were done on three biological replicates. The IC50 was calculated by nonlinear regression analysis using the Graphpad Prism software.

λ-DNA = experiment: UV-Vis absorption titration with DNA; assay type: binding, bacteriophage lambda; settings: 3 μM complex, increasing λ-DNA, Tris/HCl/NaCl buffer pH 8
Procedure: To determine whether compounds have the capacity to interact with DNA, 48,500 base-pairs of genomic DNA from bacteriophage lambda (λ-DNA, Promega. Madison USA) was used. A stock solution of 10 µM λ-DNA (base-pair concentration) was prepared in 10 mM Tris/HCl buffer containing 1 mM NaCl, pH 8.
The UV-Vis absorption titration experiments were done maintaining constant the complex concentration (3 µM) and increasing the concentration of λ-DNA, in Tris-HCl/NaCl buffer solution, at room temperature, until a saturation state was achieved. After DNA addition, the solutions were allowed to equilibrate for 5 min at room temperature. The UV-Vis absorption spectra were recorded with a Jasco V-630 spectrophotometer, using a 10 mm quartz cell. Stock solutions of compounds were prepared in DMSO (1 mM) and diluted to 3 µM in 10 mM Tris/HCl containing 1 mM NaCl, pH 8.

BJ cells = experiment: Phalloidin staining and cell imaging (cytoskeleton, nucleus); assay type: cell-based, Human; settings: 24 h, 6 μg/mL
Procedure: Cytoskeleton actin filaments of BJ and B16 cells were stained with phalloidin-FITC (Sigma-Aldrich, USA) according to the manufacturer’s protocol. Briefly, cells were washed with PBS (5 min, 3 times), fixed for 5 min with 3% paraformaldehyde, washed three times with PBS, permeabilized with 0.1% Triton X-100 in PBS for 15 min, washed three times with PBS, stained with 20 μg mL^−1 phalloidin-FITC at room temperature for 1 h and washed again three times with PBS. Cell nucleus was stained with 8 μM of Hoechst 33342 solution for 10 min, washed three times with PBS and finally, mounted and sealed on glass slides with FluorSave™ Reagent (Merck Millipore, Germany). The fluorescence images were acquired using an Andor DSD2 Confocal Unit (Andor, Ireland), mounted on an epifluorescence microscope, Olympus BX-51 (Olympus, Germany), equipped with a 40x and 100x objective and an appropriate DAPI/Hoechst filter cube (excitation filter 390/40 m, dichroic mirror 405 nm and emission filter 452/45 nm) and GFP/FITC filter cube (excitation filter 466/40 nm, dichroic mirror 488 nm and emission filter 525/54 nm).

Row | Compound | MIC (P. aeruginosa 27853) | MIC (P. aeruginosa 9027) | MIC (MRSA) | MIC (S. aureus 25923) | MIC (S. aureus 6538) | Hemolysis [1] | Effect on cell proliferation [2] | IC50 [2] | Change of UV absorption spectrum on binding to λ-DNA (λ-DNA) | Cell morphology (cytoskeleton and nucleus) (BJ cells)
1 | Cc1cc(-c2ccccc2)nc2ncnn12.[Cu+2].[O-][Cl+3]([O-])([O-])[O-].[O-][Cl+3]([O-])([O-])[O-].c1cnc2c(c1)ccc1cccnc12.c1cnc2c(c1)ccc1cccnc12 [(2), [Cu(phen)2(pmtp)](ClO4)2] | 90 µM | 90 µM | 50 µM | 10 µM | 90 µM | 0.77 ± 0.14% | did not significantly affect cell proliferation | 580 ± 210 µM | hypochromism observed for the band at 270 nm | affects the cell morphology
2 | Cc1cc(-c2ccccc2)nc2ncnn12.[Cu+2].[O-][Cl+3]([O-])([O-])[O-].[O-][Cl+3]([O-])([O-])[O-].c1ccc(-c2ccccn2)nc1.c1ccc(-c2ccccn2)nc1 [(1), [Cu(bpy)2(pmtp)](ClO4)2] | 400 µM | 400 µM | 400 µM | 400 µM | 400 µM | 0.59 ± 0.18% | did not significantly affect cell proliferation | 480 ± 160 µM | decrease in the absorption intensity of the band located at 290 nm | does not alter its morphology
